According to patent EP1001774B1, “USE OF PHOSPHOLAMBAN INHIBITORS FOR INCREASING CORONARY FLOW” (ORION CORPORATION, priority 1997, dated 1999):
“Also recorded” adds a separate entry of the source.

Legend:
[1] = target: T1, PLB[1-36 a.a.](Ser16PO3-, Thr17PO3-) (Homo sapiens, UniProt P26678); assay: Circular dichroism (CD) spectroscopy, binding to double phosphorylated phospholamban fragment; details: 50 µM in water, Fig. 1
T1 construct: (PLB [1-36 a.a.](Ser16PO3-, Thr17PO3-)); made in house; host or cells: chemical peptide synthesis (no expression host)
T1 sequence (P26678 1-36): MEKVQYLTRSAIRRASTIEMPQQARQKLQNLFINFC
Experimental: (§1) Both the 36 amino acid N-terminal fragment of human phospholamban (PLB [1-36 a.a.]) and the 36 amino acid N-terminal fragment of double phosphorylated human phospholamban (PLB [1-36 a.a.](Ser16PO3-, Thr17PO3-)) were obtained by peptide synthesis. The peptides were purified by reverse phase HPLC, analysed for homogenity by mass spectrometry and were found pure at 97 %. The peptides were lyophilized and then resuspended in water at the final concentration of 0.1 mM, for CD analysis. The pH of both solutions was between 3 and 4 and was not further adjusted. Compound of Example 1c was solved in water at a final concentration of 0.1 mM. The pH was adjusted at 7.2 by adding 1 N NaOH.
(§2) Circular dichroism spectra were acquired at 24 °C on samples of 100 µl. The spectra were recorded on a Jasco J-720 spectropolarimeter using a 1 mm path-length quartz cuvette. The band width was 1 nm, the sensitivity 20 mdeg, the step resolution 0.5 nm, the response time 0.5 sec, and the scan speed 20 nm/min (from 250 to 190 nm). The spectra were expressed in [θ] x 10^-3 x degrees x cm^2 x dmol^-1.

SR Ca^2+-ATPase = assay: Calcium uptake assay (fluo-3) in SR vesicles from fast skeletal muscle (psoas m.), which contain no phospholamban; assay type: biochemical, guinea-pig; details: 50 and 100 µM; Figure 2B; three experiments per group
Source text: (§3) The direct binding of a compound to the phospholamban protein can be ascertained by the circular dichroism (CD) spectroscopy. The methods for determining whether a compound relieves the inhibitory effect of phospholamban on SR Ca^2+-ATPase by direct binding to the phospholamban protein, i.e. is a phospholamban inhibitor, are illustrated in detail in the experimental section.
(§4) The effect on phospholamban of the compounds used in the invention was verified by measuring its effects on calcium uptake into the SR vesicles prepared from cardiac tissue and into vesicles prepared from fast skeletal muscle (psoas m.). […] The methods are described below in detail.
(§5) Guinea pigs (10-12) were decapited. Their hearts or the psoas muscles were excised, washed in ice-cold 0.9 % NaCl and cut into pieces in a buffer containing 20 mM Tris-maleate, 0.3 M sucrose, pH 7.0. Thereafter tissue pieces were homogenized with Polytron and further with Potter (10 strokes). The homogenate was centrifugated at 1000 g for 15 min at 4 °C. The supernatant was collected and the pellet was resuspended into 5 ml of the buffer (20 mM Tris-maleate, 0.3 M sucrose, pH 7.0) and recentrifugated at 1000 g for 10 min at 4 °C. The obtained supernatant was combined with the earlier collected supernatant and centrifugated once again at 10 000 g for 20 min at 4 °C. The final supernatant was filtered into a bottle equipped with a magnetic stirrer. KCl was added to the filtered supernatant to achieve the final concentration of 0.6 M (at 4 °C). The obtained solution was centrifugated at 100 000 g for 60 min at 4 °C. The pellet was suspended in 5 ml of the buffer containing 20 mM Tris-maleate, 0.3 M sucrose, pH 7.0 and centrifugated at 100 000 g for 60 min at 4 °C. The obtained pellet was suspended in 5 ml of buffer containing 20 mM Tris-maleate, 0.3 M sucrose, 0.1 M KCI, pH 7.0 and stored at -80 °C until use. The protein concentration was also measured in order to standardise the separately prepared vesicle preparations.
(§6) In the calcium uptake assay, the fluorescent indicator, fluo-3 was used to detect the decrease of the extravesicular Ca^2+-concentration, when the SR Ca^2+ATPase was transferring Ca^2+ from the extravesicular space into the SR-vesicles.
(§7) The SR-vesicles obtained above (50 µg protein/ml) were preincubated with or without the test compound at 37 °C for 5 min in the assay buffer containing 40 mM imidazole, 95 mM KCI, 5 mM NaN3, 5 mM MgCl2, 0.5 mM EGTA, 5 mM potassium oxalate, 2 µM ruthenium red, 5 µM fluo-3, pH 7.0. The free calcium was adjusted to 0.1 µM or to 0.04 µM by CaCl2. The reaction was initiated by adding ATP (5 mM). The final reaction volume was 1.5 ml. The fluorescence of reaction mixture was measured for 3 min by using the excitation and emission wavelengths of 510 nm and 530 nm, respectively.

PLB[1-36 a.a.] = target: T2, PLB[1-36 a.a.] (Homo sapiens, UniProt P26678); assay: Circular dichroism (CD) spectroscopy, binding to the cytosolic part of phospholamban; details: 50 µM in water, Fig. 1
T2 construct: N-terminal fragment of human phospholamban (PLB [1-36 a.a.]); made in house; host or cells: chemical peptide synthesis (no expression host)
T2 sequence (P26678 1-36 limits assumed): T1 sequence (P26678 1-36)
Experimental: as §1, §2

phospholamban = target: T3, phospholamban (Cavia porcellus, UniProt A0A286XLC6); assay: Calcium uptake assay (fluo-3) in SR vesicles from cardiac tissue; assay type: biochemical, guinea-pig; details: 50 and 100 µM; Figure 2A; three experiments per group
T3 construct: calcium uptake into the SR vesicles prepared from cardiac tissue; from tissue; host or cells: guinea-pig heart (ventricular myocardium), SR vesicle preparation
T3 sequence (A0A286XLC6 1-52): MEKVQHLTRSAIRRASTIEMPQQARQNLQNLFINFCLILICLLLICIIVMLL
Source text: as §3, §4, §5, §6, §7

coronary arteries = assay: Coronary flow in isolated paced heart (Langendorff, constant pressure); design: species or system guinea-pig; details: 0.3 - 30 µM; six hearts paced at 250 beats/min; Figure 3A
Experimental: Guinea-pigs of either sex weighing 300-400 g were used in the study. After the guinea-pig was sacrificed by a blow on the skull and decapitated the heart was rapidly excised. The heart was then rinsed in cold oxygenated perfusion buffer. A cannula was inserted into the aorta and secured with a ligature. Retrograde perfusion began as soon as the heart was placed in a thermostatically controlled moist chamber of the Langendorff apparatus. Modified Tyrode solution (37 °C), equilibrated in a thermostatically controlled bulb oxygenator with carbogen (95 % O2 and 5% CO2) was used as a perfusion buffer. The composition of the Tyrode solution was (in mM): NaCl 135; MgCl2 x 6H2O 1; KCl 5; CaCl2 x 2H2O 2; NaHCO3 15; Na2HPO4 x 2H2O 1; glucose 10; pH 7.3-7.4. The experiments were carried out under constant pressure condition (50 mmHg). After a short prestabilization (10 min) a latex balloon (size 4) was carefully placed into the left ventricle through the left pulmonary vein and the left atrium. The latex balloon was attached to a stainless-steel cannula coupled with a pressure transducer. The latex balloon, the cannula and the chamber of the pressure transducer were filled with ethylene glycol / water (1:1) mixture avoiding any air-bubble. The isovolumetric left ventricular pressure was recorded through the pressure transducer. The maximal positive and negative derivatives of the left ventricular pressure were calculated by using the digitized pressure signals. At the beginning of the experiment, the volume of the balloon was adjusted to obtain a diastolic pressure of approximately 5 mmHg. Coronary flow (ml/min) was continuously recorded by an electromagnetic flow meter with a flow probe inserted above the aortic cannula. The heart was paced at 250 beats/min with a coaxial electrode localized on the surface of the right atrium. Before starting the experiment, the heart was allowed to stabilise further for 30 - 50 min with vehicle (0.1% DMSO) to reach a stable coronary flow.
After 15 min baseline recording various concentrations of the test compound of Example 1c were added to the perfusion buffer at 15 min intervals. The concentration range of 0.3 - 30 µM was tested. The vehicle concentration (0.1% DMSO) was kept constant throughout the experiment.

[2] = test system: endothelial cells of the coronary vessels; assay: Coronary flow in freely beating isolated heart with and without Triton x 100 destruction of endothelial cells; design: species or system guinea-pig; details: 0.3 - 30 µM; Figures 4A and 4B
Experimental: Substance P, an endothelial-dependent vasodilator, was used as a reference compound. Triton x 100 was used to destroy the endothelial cells of the coronary vessels.
The experiment was carried out under constant pressure condition (50 mmHg) on freely beating heart. Coronary flow (ml / min) was continuously recorded by an electromagnetic flow meter with a flow probe inserted above the aortic cannula.
After 15 min baseline recording a bolus dose of substance P (0.1 µM / 0.3 ml) was added to the perfusion buffer via a side branch of the aortic cannula (Figure 4B). The addition of substance P was repeated twice before the injection of triton x 100 (0.05% / 0.2 ml) was given via a needle inserted into the cannula just above the aorta. After 85 min of triton x 100 injection a control dose of substance P was added twice to the perfusion buffer in order to check if the endothelial cells has destroyed. Thereafter the concentration range of 0.3 - 30 µM of the compound of Example 1c was tested. The vehicle concentration (0.1% DMSO) was kept constant throughout the experiment. A control experiment is shown in Figure 4A where the effect of Example 1 c is seen at the same concentration range when the […] is not disrupted by Triton x 100.

## Cc1c(Cc2ccccc2)c(=O)oc2cc(OCc3nnn[nH]3)cc(OCc3nnn[nH]3)c12 [Example 1c, 3-Benzyl-5,7-bis[(1H -tetrazol-5-yl)methoxy]-4-methyl-2H-1-benzopyran-2-one]
[1]
  interaction with PLB[1-36 a.a.](Ser16PO3-, Thr17PO3-) (CD spectra): does not interact or interacts weakly with the phosphorylated phospholamban
SR Ca^2+-ATPase
  Ca^2+ uptake rate into the fast skeletal muscle SR vesicles: did not change the calcium uptake
PLB[1-36 a.a.]
  interaction with PLB[1-36 a.a.] (CD spectra): forms a complex with PLB at their N-terminal domain; also recorded: interacts with the cytosolic part of phospholamban PLB[1-36 a.a.]
phospholamban
  Ca^2+ uptake rate into the cardiac SR vesicles: accelerated the calcium uptake into the cardiac SR vesicles
Coronary arteries
  coronary flow: increase in coronary flow
[2]
  mechanism of the vasodilatory effect (coronary flow with / without Triton x 100): due to an endothelial-mediated mechanism
